The nature of data set [1]: Photostability protocol (UV exposure, ICH Q1B, SUNTEST, HPLC). The data set is classed as physicochemical. As to conditions: after 17 h exposure to UV light; for Elafibranor degradation (%): HPLC-UV at 350 nm. The procedure:
In order to make the difference between the degradation only due to temperature within the SUNTEST apparatus chamber and the degradation only due to UV exposure, a second elafibranor salt sample protected from light is also placed in the SUNTEST chamber. All samples are then analyzed by HPLC.
The crystallized samples were stressed by exposure to UV light according to the photostatbility protocol described above.

The target in data set [2] is T1, PPARalpha (Homo sapiens, UniProt Q07869).
T1 sequence (Q07869 200-468 limits assumed): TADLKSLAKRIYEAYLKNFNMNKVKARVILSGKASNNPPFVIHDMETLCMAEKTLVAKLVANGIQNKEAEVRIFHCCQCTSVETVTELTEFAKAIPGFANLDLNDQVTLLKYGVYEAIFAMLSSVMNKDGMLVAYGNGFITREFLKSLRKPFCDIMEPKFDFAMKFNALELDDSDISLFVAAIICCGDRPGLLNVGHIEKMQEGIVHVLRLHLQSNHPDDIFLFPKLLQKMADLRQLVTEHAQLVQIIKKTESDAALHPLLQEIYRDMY
Briefly: Gal4-PPAR transactivation assay in COS-7 cells, human PPARalpha. The data set is classed as cell-based. The procedure:
(§1) Monkey kidney COS-7 cells were maintained in standard culture conditions (Dulbecco's modified Eagle's minimal medium: DMEM) supplemented with 10% fetal calf serum, 1% sodium pyruvate, 1% essential amino acids, 1% L-glutamine and 1% antibiotics at 37° C. in a humidified atmosphere of 5% CO2 and 95% air. The medium was changed every 2 days. All tested compounds were dissolved in DMSO. Cells were transfected using 4 μl JetPEI™ (Polyplus transfection)/μg of DNA. Briefly, 150 ng of DNA per well was transfected in a 96 well culture plate of adherent COS-7 cells (respecting the 10:1 ratio between the Gal4(RE)_TkpGL3 plasmid and the plasmid coding the nuclear receptor of interest (pGal4-hPPARalpha, pGal4-hPPARgamma, pGal4-hPPARdelta, pGal4-mPPARalpha, pGal4-mPPARgamma and pGal4-mPPARdelta) or of the pGal4phi plasmid (negative control). Cells were enzymatically detached and seeded in 96 well plates at the density of 40,000 cells per well and then incubated for 24 hours at 37° C. The activation was performed in DMEM 0% fetal calf serum, supplemented with the tested compounds (compound of interest or reference molecules) or vehicle (DMSO 0.1%). The luciferase activity was measured with the Steady-Glo Luciferase Assay System (Promega, Madison, WI). All transactivation experiments were performed at least 2 times. Activation curves were realized using Prism® (from GraphPad) software. Prism® was also used to fit the standard curves and then determine the specific EC50 values, maximum effect versus reference molecules and Hill slope. The Emax effect of each new ligand is represented as the ratio of the maximal induction (plateau) obtained with the new ligand and the induction obtained with the corresponding reference compound. The reference compounds for PPARalpha, PPARgamma and PPARdelta were fenofibrate (100 μM), rosiglitazone (10 μM) and GW501516 (1 μM), respectively.

Data set [3] deals with T2, PPARgamma (Homo sapiens, UniProt P37231).
T2 sequence (P37231 238-505 limits assumed): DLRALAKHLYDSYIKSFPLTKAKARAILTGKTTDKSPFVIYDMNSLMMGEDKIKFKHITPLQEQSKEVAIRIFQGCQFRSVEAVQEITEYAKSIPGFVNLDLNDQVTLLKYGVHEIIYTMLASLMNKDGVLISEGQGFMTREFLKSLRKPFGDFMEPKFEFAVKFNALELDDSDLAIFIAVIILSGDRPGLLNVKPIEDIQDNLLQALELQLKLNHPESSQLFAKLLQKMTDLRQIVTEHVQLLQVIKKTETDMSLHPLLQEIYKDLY
As to the kind of experiment: Gal4-PPAR transactivation assay in COS-7 cells, human PPARgamma. The data set is classed as cell-based. As for the experimental part:
as §1

In data set [4] the target is T3, PPARalpha (Mus musculus, UniProt P23204).
T3 sequence (P23204 200-468 limits assumed): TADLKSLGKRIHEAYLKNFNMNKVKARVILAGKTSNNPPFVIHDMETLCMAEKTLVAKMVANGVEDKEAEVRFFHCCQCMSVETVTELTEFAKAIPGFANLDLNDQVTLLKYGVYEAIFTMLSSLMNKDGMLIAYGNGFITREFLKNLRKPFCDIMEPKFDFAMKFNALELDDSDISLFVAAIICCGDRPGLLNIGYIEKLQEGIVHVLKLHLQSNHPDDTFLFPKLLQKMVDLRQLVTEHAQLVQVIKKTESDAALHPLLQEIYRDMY
Briefly: Gal4-PPAR transactivation assay in COS-7 cells, murine PPARalpha. The data set is classed as cell-based. Conditions: Murin. As for the experimental part: as §1

Data set [5] deals with T4, PPARgamma (Mus musculus, UniProt P37238).
T4 sequence (P37238 238-505 limits assumed): T2 sequence (P37231 238-505 limits assumed) with S93N, V98I, S146N, L226V, Q245H
Briefly: Gal4-PPAR transactivation assay in COS-7 cells, murine PPARgamma. The data set is classed as cell-based. Conditions: Murin. The procedure:
as §1

Data set [6] is described as follows: Solubility assessment in buffered aqueous solution. As to conditions: for solubility at 24 h: 20 °C, thermodynamic from solid. The procedure: The solubility of the compound is determined in buffered aqueous solution at pH 1, pH 3, pH 5 and pH 7.4.
The saturation is obtained by adding an excess of active ingredient to a given volume of test medium. The suspension is stirred by orbital stirring over 24 hours at […], away from light.
After 30 min, 1 hour, 2 hours and/or 24 hours, the supernatant is isolated by centrifugation and diluted in a solvent mixture allowing its injection into the chromatographic system. The concentration (expressed as parent concentration) in solution for each medium is determined by HPLC (external standardization).
After 24 hours an XRPD analysis is performed on the insoluble fraction isolated by centrifugation.
• pH 1 HCl/KCl buffer: a mixture of 0.373 g of KCl and 13.4 ml of HCl in a 100 mL volumetric flask was completed to 100 mL with de-ionized water. • pH 3 citrate buffer: 1.051 g of citric acid monohydrate was dissolved in 250 ml of de-ionized water. The pH was adjusted to 3 with NaOH. • pH 5 citrate/phosphate buffer: Solution I was prepared: 2.8392 g of Na2HPO4 in 100 mL volumetric flask was completed to 100 mL with de-ionized water. Solution II was prepared: 2.1004 g of citric acid monohydrate in a 100 mL volumetric flask was completed to 100 mL with de-ionized water. To 48.5 mL of Solution II were added 51.5 mL of Solution I. • pH 7.4 phosphate buffer: a mixture of 38 g of Na2HPO4, 12H2O and 3.8 g of Na2HPO4, 2H2O in a 1 L volumetric flask was completed to 1 L with de-ionized water. Salt Screening Macroscopic Observation

Where [7] appears, read: listed as Elafibranor L-Arginine salt.

Residue numbers refer to the chain shown, from its start. ≈ marks a conversion by molar mass, not a printed value. Where a name gives a salt, the structure may show the parent alone. Read-outs that look alike come from different tables or passages of the source.

The term EC50 denotes the concentration that produces a half-maximal response. As for `CSc1ccc(C(=O)/C=C/c2cc(C)c(OC(C)(C)C(=O)O)c(C)c2)cc1` [Form III, Elafibranor sodium salt], the “Elafibranor degradation (%)” value in data set [1] (sodium salt) is given as 89%. The EC50 was found to be 0.077 µM at PPARalpha [2], 0.56 µM on PPARgamma [3], 0.133 µM on PPARalpha [4] and 0.77 µM at PPARgamma [5].

Take `CSc1ccc(C(=O)/C=C/c2cc(C)c(OC(C)(C)C(=O)O)c(C)c2)cc1.NC(CO)(CO)CO` [Form I, Elafibranor tromethamine salt]: the “Final pH of the saturated solution” value is 0.9 in data set [6] (pH 1 HCl/KCl buffer), 3.1 in data set [6] (pH 3 citrate buffer), 5.1 in data set [6] (pH 5 citrate/phosphate buffer) and 7.3 in data set [6] (pH 7.4 phosphate buffer). Moreover, the “Soluble fraction (mg/mL) at 20° C. at 24 hours” value in data set [6] (pH 1 HCl/KCl buffer) is recorded as less than 0.001 mg/mL; in data set [6] (pH 3 citrate buffer) it was less than 0.001 mg/mL; in data set [6] (pH 5 citrate/phosphate buffer) it was 0.003 mg/mL; in data set [6] (pH 7.4 phosphate buffer), 0.19 mg/mL. Also, the “Solubility compared to elafibranor” value in data set [6] (pH 7.4) is recorded as “more soluble than elafibranor”. In addition, the “Photostability compared to elafibranor free acid” value in data set [1] is listed as “significant improvement of the photostability”. The “Elafibranor degradation (%)” value in data set [1] was 10%. Also, the EC50 on PPARalpha [2] turned out to be 0.068 µM; at PPARgamma [3], 0.49 µM; at PPARalpha [4] it was 0.103 µM; at PPARgamma [5], 0.73 µM.

`CSc1ccc(C(=O)/C=C/c2cc(C)c(OC(C)(C)C(=O)O)c(C)c2)cc1` [Form II, Elafibranor potassium salt]: the “Photostability compared to elafibranor free acid” value in data set [1] is “significant improvement of the photostability”. For the same compound, the “Elafibranor degradation (%)” value in data set [1] (listed as Potassium salt (Form II), potassium salt) came to 13%; in data set [1] (potassium salt), 13%. Moreover, the EC50 was 0.064 µM at PPARalpha [2], 0.43 µM on PPARgamma [3], 0.096 µM at PPARalpha [4] and 0.59 µM on PPARgamma [5].

For the compound `CSc1ccc(C(=O)/C=C/c2cc(C)c(OC(C)(C)C(=O)O)c(C)c2)cc1.N=C(N)NCCC[C@H](N)C(=O)O` [Form IV, Elafibranor L-arginate salt], the “Photostability compared to elafibranor free acid” value in data set [1] is reported as “significant improvement of the photostability”. Moreover, the “Elafibranor degradation (%)” value in data set [1] is 4%. Moreover, the EC50 was 0.054 µM on PPARalpha [2] (setting [7]), 0.32 µM at PPARgamma [3] (setting [7]), 0.093 µM on PPARalpha [4] (setting [7]) and 0.58 µM at PPARgamma [5] (setting [7]).

Broadly, the solubility is how much of the substance goes into solution per volume. A higher solubility goes with much dissolved substance. `CSc1ccc(C(=O)/C=C/c2cc(C)c(OC(C)(C)C(=O)O)c(C)c2)cc1` [Elafibranor, reference compound]: the solubility at 24 h was less than 1 µg/mL in data set [6] (pH 1, simulated gastric fluid); less than 1 µg/mL in data set [6] (pH 3, aqueous buffer); 1 µg/mL (≈ 2.6 µM) in data set [6] (pH 5, aqueous buffer); 130 µg/mL (≈ 338 µM) in data set [6] (pH 7.4, aqueous buffer). Besides, the “Final pH of the saturated solution” value in data set [6] (pH 1 HCl/KCl buffer) is 0.7; in data set [6] (pH 3 citrate buffer), 2.9; in data set [6] (pH 5 citrate/phosphate buffer), 4.9; in data set [6] (pH 7.4 phosphate buffer) it was 7.3. Moreover, the “Elafibranor degradation (%)” value in data set [1] (listed as Free acid) and in data set [1] (listed as elafibranor free acid) was 27% throughout. In addition, the half-maximal effective concentration (EC50) on PPARalpha [2] was found to be 0.057 µM; on PPARgamma [3], 0.43 µM; on PPARalpha [4], 0.095 µM; on PPARgamma [5], 0.58 µM.
